Experimental data published in ChEMBL document CHEMBL1132873, “Synthesis and structural analysis of the active enantiomer of famoxadone, a potent inhibitor of cytochrome bc1” (Bioorg Med Chem Lett, 2000).

Species on record: Rattus norvegicus
Assay: Compound was tested for inhibition of mitochondrial electron transport
Format: functional

Compound	IC50 [nM]
CN(c1ccccc1)N1C(=O)O[C@@](C)(c2ccc(Oc3ccccc3)cc2)C1=O	35
C[C@@]1(c2ccc(Oc3ccccc3)cc2)OC(=O)N(Nc2ccccc2)C1=O [FAMOXADONE]	11
